Molecules are shown by their SMILES.

This note sets out measurements from US20230135894A1, “MK2 DEGRADERS AND USES THEREOF” (Kymera Therapeutics, Inc., priority 2021, published 2023).

The target of experiment [1] is T1, MK2 (Homo sapiens, UniProt P49137). Kind of experiment: MK2 degradation in human THP-1 monocytic cells (MSD, 24 h). Format: cell-based. The arrangement: endogenous in cells. As to conditions: for Dmax: THP-1, THP-1 cells; for DC50: THP-1 cells, read-out: MK2 MSD THP-1 degradation 24 h GMean External Abs DC50. The method, then: MK2 Degradation in Human THP-1 Monoctyic Cells
T1 sequence (P49137 whole entry): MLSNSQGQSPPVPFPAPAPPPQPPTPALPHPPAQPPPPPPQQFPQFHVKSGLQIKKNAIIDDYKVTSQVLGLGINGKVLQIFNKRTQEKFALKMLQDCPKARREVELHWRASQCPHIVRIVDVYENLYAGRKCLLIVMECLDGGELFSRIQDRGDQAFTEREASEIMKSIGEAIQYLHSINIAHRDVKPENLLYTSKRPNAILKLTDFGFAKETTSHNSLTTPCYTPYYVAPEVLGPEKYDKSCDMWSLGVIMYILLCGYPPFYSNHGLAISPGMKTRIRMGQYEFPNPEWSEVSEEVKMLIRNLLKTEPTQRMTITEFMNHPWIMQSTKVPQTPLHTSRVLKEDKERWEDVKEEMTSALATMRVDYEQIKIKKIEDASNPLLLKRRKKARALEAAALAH
(§1) The human monocytic cancer cell line THP-1 (ATCC (TIB-202)) was cultured in 96 well plates (Corning 3894) at a density of 200,000 cells per well in 100 microlitres in complete growth medium of RPMI 1640 (Gibco) pus 10% fetal Bovine Serum (Corning) and Penicillin/Streptomycin (SolarBio) at 37 degrees Celsius and 5% CO2. A serial dilution of each compound (usually 3 to 5 fold serial dilutions up to 10 separate concentration points) was added to individual wells from a 10 millimolar stock solution, at a background concentration of 0.1% DMSO and the cells were shaken at 600 rpm for 5 minutes and then were cultured for 24 hours at 37 degrees Celsius and 5% carbon dioxide. Separately, a custom MSD (MesoScaleDiscovery, L15XA-3) plate for detection of human MK2 was prepared by coating the plate with the commercial AbCam ab247272 reagent in 1×Phosphate Buffered Saline at 40 microlitres per well and incubated at 4 degrees Celsius overnight. The next day, the MSD plate was washed with 150 microlitres of Tween buffered saline, blocked with MSD blocking buffer (3% Blocker A from MSD), and washed again.
(§2) The cell plate was centrifuged at 3,200 g for 5 minutes and the supernatant was discarded and 100 microlitres of RIPA lysis buffer (containing proteinase inhibitors, Boston BioProducts BP-115D) was added and the plate was sealed and shaken on ice for 20 minutes. The plate was centrifuged as before and 70 microlitres of sample lysate was added to the MSD plates and they were shaken at room temperature for 1 hour at 600 rpm. The MSD plate was washed 3 times as before and then the primary MK2 detection antibody (Santa Cruz sc-100393) was added at a final concentration of 1 microgram per ml at 25 microlitres per well and shaken at room temperature for 1 hour at 600 rpm.
(§3) After 3 more washes, the secondary detection antibody (SULFO-Tag anti rabbit antibody R32AB-5) was added at a final concentration of 1 microgram per ml at 25 microlitres per well and shaken at room temperature for 1 hour at 600 rpm. After 3 more washes, the 1×MSD (diluted from 5× concentrate with water) reading buffer was added at 150 microlitres per well and read on the MSD instrument Meso Sector S 600.
(§4) The inhibition/degradation curves and DC50 values were plotted and calculated using XL Fit (version v5.3.1.3) using equation 201 and a 4 parameter logistic model whereby fit=(A+((B−A)/(1+((x/C)D))) where A is the Bottom and B is the Top and C is the IC50 and D is the slope and high C is the signal for the DMSO treated cells and Low C is the signal is the signal for the lysis buffer.

Experiment [2] concerns the target T1, MK2. Kind of experiment: MK2 degradation in human SW1353 cells (MSD, 24 h). It is filed as cell-based. The arrangement: endogenous in cells; host or cells: SW-1353 (ATCC HTB-94). Particulars: for Dmax: read-out: MK2 MSD SW 1353 24 h Dmax %; for DC50: read-out: MK2 MSD SW1353 degradation 24 h GMean External Abs DC50. The method, then:
MK2 Degradation in Human SW1353 Cells
as §1, with “chondrocyte” for “monocytic”, “SW-1353 (ATCC(HTB-94))” for “THP-1 (ATCC (TIB-202))”, “Leibovitz's L-15 Medium” for “RPMI 1640”, “Celsius.” for “Celsius and 5% CO2.”, “Celsius.” for “Celsius and 5% carbon dioxide.”
as §2, §3, §4

The Dmax is the largest share of the target that was removed. As usually defined, the DC50 is the concentration at which degradation of the target reaches its halfway point. `C[C@@H]1CNc2c(sc3ccc4nc(-c5ccc(N6CCC(CN7CCC(c8cccc9c8n(C)c(=O)n9C8CCC(=O)NC8=O)CC7)CC6)cc5)ccc4c23)C(=O)N1` (some centres unmarked) [Compound I-98]: in experiment [1], the Dmax was more than 75% and the DC50 was less than 1 nM. For the same compound, in experiment [2], the Dmax is more than 75% and the DC50 is less than 1 nM.
Turning to `C[C@@H]1CNc2c(sc3ccc4nc(-c5ccc(N6CCC(CN7CCC(c8cccc9c8n(C)c(=O)n9C8CCC(=O)NC8=O)CC7)CC6)nc5)ccc4c23)C(=O)N1` (some centres unmarked) [Compound I-99], in experiment [1], the Dmax was more than 75% and the DC50 was less than 1 nM. Besides, in experiment [2], the Dmax was more than 75% and the 50% degradation concentration (DC50) is less than 1 nM.
For `C[C@@H]1CNc2c(sc3ccc4nc(-c5cncc(N6CCN(C(=O)COCCOCCc7cccc8c7n(C)c(=O)n8C7CCC(=O)NC7=O)CC6)c5)ccc4c23)C(=O)N1` (some centres unmarked) [Compound I-100], in experiment [1], the Dmax was more than 75% and the DC50 lay within 1 to 10 nM. In experiment [2], the Dmax was more than 75% and the 50% degradation concentration (DC50) was in the range of 1 to 10 nM.
In the case of `C[C@@H]1CNc2c(sc3ccc4nc(-c5cncc(C6CCN(CCCCCCCCc7cccc8c7n(C)c(=O)n8C7CCC(=O)NC7=O)CC6)c5)ccc4c23)C(=O)N1` (some centres unmarked) [Compound I-103], the Dmax in experiment [1] and in experiment [2] was more than 75% each time. The DC50 is less than 1 nM in experiment [1] and 1 to 10 nM in experiment [2].
As for `C[C@@H]1CNc2c(sc3ccc4nc(-c5cccc(C6CCN(CCN7CCC(CCc8cccc9c8n(C)c(=O)n9C8CCC(=O)NC8=O)CC7)CC6)c5)ccc4c23)C(=O)N1` (some centres unmarked) [Compound I-104], in experiment [1], the Dmax was more than 75% and the DC50 was in the range of 1 to 10 nM. For the same compound, in experiment [2], the Dmax was more than 75% and the DC50 lay within 10 to 100 nM.
As for `C[C@@H]1CNc2c(sc3ccc4nc(-c5cccc(N6CCN(CCN7CCC(CCc8cccc9c8n(C)c(=O)n9C8CCC(=O)NC8=O)CC7)CC6)c5)ccc4c23)C(=O)N1` (some centres unmarked) [Compound I-105], the Dmax in experiment [1] and in experiment [2] was more than 75% in each case. The figures for the DC50 in experiment [1] and in experiment [2] were less than 1 nM and 1 to 10 nM, respectively.
Regarding `C[C@@H]1CNc2c(sc3ccc4nc(-c5cccc(N6CCC(CN7CCC(CCc8cccc9c8n(C)c(=O)n9C8CCC(=O)NC8=O)CC7)CC6)c5)ccc4c23)C(=O)N1` (some centres unmarked) [Compound I-106], in experiment [1], the Dmax was more than 75% and the DC50 is less than 1 nM. Also, in experiment [2], the Dmax is more than 75% and the DC50 lay in the range of 1 to 10 nM.
For the compound `C[C@@H]1CNc2c(sc3ccc4nc(-c5cccc(N6CCC(CN7CCN(CCc8cccc9c8n(C)c(=O)n9C8CCC(=O)NC8=O)CC7)CC6)c5)ccc4c23)C(=O)N1` (some centres unmarked) [Compound I-107], in experiment [1], the Dmax was more than 75% and the DC50 is less than 1 nM. For the same compound, in experiment [2], the Dmax was more than 75% and the DC50 is 1 to 10 nM.
As for `C[C@@H]1CNc2c(sc3ccc4nc(-c5cccc(N6CCN(CCCc7ccc8c(c7)n(C)c(=O)n8C7CCC(=O)NC7=O)CC6)c5)ccc4c23)C(=O)N1` (some centres unmarked) [Compound I-118], in experiment [1], the Dmax is more than 75% and the DC50 was less than 1 nM. In experiment [2], the Dmax is more than 75% and the DC50 was less than 1 nM.
Take `C[C@@H]1CNc2c(sc3ccc4nc(-c5ccc(N6CCC(CN7CCC(c8ccc9c(c8)n(C)c(=O)n9C8CCC(=O)NC8=O)CC7)CC6)cc5)ccc4c23)C(=O)N1` (some centres unmarked) [Compound I-119]: in experiment [1], the Dmax was more than 75% and the DC50 is less than 1 nM. Further, in experiment [2], the Dmax was more than 75% and the DC50 is less than 1 nM.
As to `Cn1c(=O)n(C2CCC(=O)NC2=O)c2cccc(N3CCC(CN4CCN(c5ccc(-c6cc(-c7cc8c([nH]7)CCNC8=O)ccn6)cc5)CC4)CC3)c21` (centres unmarked) [Compound I-120], in experiment [1], the Dmax is more than 75% and the DC50 was 1 to 10 nM. In experiment [2], the Dmax is more than 75% and the DC50 is 1 to 10 nM.
On to `Cn1c(=O)n(C2CCC(=O)NC2=O)c2ccc(CCCN3CCN(c4cccc(-c5ccc(-c6cc7c([nH]6)CCNC7=O)cn5)c4)CC3)cc21` (centres unmarked) [Compound I-121], for which, in experiment [1], the Dmax is less than 50% and the DC50 was more than 100 nM. Further, in experiment [2], the Dmax was less than 50% and the DC50 is more than 100 nM.
In the case of `C[C@@H]1CNc2c(sc3ccc4nc(-c5ccc(C6CCN(CC7CCN(c8cccc9c8n(C)c(=O)n9C8CCC(=O)NC8=O)CC7)CC6)nc5)ccc4c23)C(=O)N1` (some centres unmarked) [Compound I-122], in experiment [1], the Dmax is more than 75% and the DC50 was less than 1 nM. In addition, in experiment [2], the Dmax is more than 75% and the DC50 is less than 1 nM.
Take `C[C@@H]1CNc2c(sc3ccc4nc(-c5ccc(N6CCN(CC7CCN(c8cccc9c8n(C)c(=O)n9C8CCC(=O)NC8=O)CC7)CC6)nc5)ccc4c23)C(=O)N1` (some centres unmarked) [Compound I-125]: the Dmax in experiment [1] and in experiment [2] was more than 75% in each case. Further, the DC50 in experiment [1] and in experiment [2] was less than 1 nM each time.
For `C[C@@H]1CNc2c(sc3ccc4nc(-c5ccc(N6CCN(CC7CCN(c8cccc9c8n(C)c(=O)n9C8CCC(=O)NC8=O)CC7)CC6)cc5)ccc4c23)C(=O)N1` (some centres unmarked) [Compound I-126], in experiment [1], the Dmax was more than 75% and the DC50 lay in the range of 1 to 10 nM. Besides, in experiment [2], the Dmax was more than 75% and the DC50 fell in the range of 1 to 10 nM.
As for `C[C@@H]1CNc2c(sc3ccc4nc(-c5ccc(N6CCN(CCC7CCN(c8cccc9c8n(C)c(=O)n9C8CCC(=O)NC8=O)CC7)CC6)cc5)ccc4c23)C(=O)N1` (some centres unmarked) [Compound I-127], in experiment [1], the Dmax was more than 75% and the DC50 was in the range of 1 to 10 nM. In experiment [2], the Dmax is more than 75% and the DC50 is 1 to 10 nM.
Take `C[C@@H]1CNc2c(sc3ccc4nc(-c5ccc(N6CCC(CCN7CCN(c8cccc9c8n(C)c(=O)n9C8CCC(=O)NC8=O)CC7)CC6)cc5)ccc4c23)C(=O)N1` (some centres unmarked) [Compound I-128]: in experiment [1], the Dmax was more than 75% and the DC50 fell in the range of 1 to 10 nM. Further, in experiment [2], the Dmax was more than 75% and the DC50 fell in the range of 1 to 10 nM.
On to `C[C@@H]1CNc2c(sc3ccc4nc(-c5ccc(N6CCN(CC7CCN(c8ccc9c(c8)n(C)c(=O)n9C8CCC(=O)NC8=O)CC7)CC6)nc5)ccc4c23)C(=O)N1` (some centres unmarked) [Compound I-129], for which, in experiment [1], the Dmax is more than 75% and the DC50 is less than 1 nM. In addition, in experiment [2], the Dmax is more than 75% and the DC50 was less than 1 nM.
As for `C[C@@H]1CNc2c(sc3ccc4nc(-c5ccc(N6CCN(CC7CCN(c8ccc9c(c8)n(C)c(=O)n9C8CCC(=O)NC8=O)CC7)CC6)cc5)ccc4c23)C(=O)N1` (some centres unmarked) [Compound I-130], in experiment [1], the Dmax was more than 75% and the DC50 is less than 1 nM. In experiment [2], the Dmax was more than 75% and the DC50 is less than 1 nM.
Take `C[C@@H]1CNc2c(sc3ccc4nc(-c5ccc(N6CCC(CCN7CCN(c8ccc9c(c8)n(C)c(=O)n9C8CCC(=O)NC8=O)CC7)CC6)cc5)ccc4c23)C(=O)N1` (some centres unmarked) [Compound I-131]: the Dmax in experiment [1] and in experiment [2] was more than 75% throughout. Besides, the DC50 in experiment [1] and in experiment [2] was less than 1 nM in each case.
